Experimental data from patent US20070083037A1, “Monkey npy y4 receptor and method of evaluating compound” (priority 2003, published 2007).

Legend:
[1] = test system: rhesus monkey NPY Y4 receptor (SEQ ID NO: 1); assay: Receptor binding assay using rhesus monkey Y4 receptor-expressing COS-7 cell membrane fractions (SEQ ID NO: 1), inhibition of [125I]human PP binding; conditions: expression vector SEQ ID NO: 1; COS-7 membrane fraction; 59 pM [125I]human PP; read-out: IC50 against specific [125I]human PP binding
Method: (§1) COS-7 cells were transfected with a pEF1/[…]B plasmid vector containing the nucleotide sequence of SEQ ID NO: 1 or 3, using LipofectAmine Plus (Invitrogen). After 48 hours, the cells were recovered, and disrupted in 10 mM MOPS buffer (pH 7.4) containing 20% sucrose, 154 mM NaCl, 10 mM KCl and 0.8 mM CaCl2, using a Polytron homogenizer (Kinematica) while cooling on ice. The obtained homogenate was centrifuged at 1,000×g, 4° C. for 15 minutes, the supernatant was centrifuged at 90,000×g for 50 minutes, and the precipitate was collected. It was then suspended in 5 mM HEPES/Tris buffer (pH 7.4) and then centrifuged again at 90,000×g for 50 minutes, after which the obtained precipitate was collected as the membrane sample. […] After rinsing with 5 mM Tris buffer (pH 7.4) containing 0.3% bovine serum albumin and drying, MicroScint0 (Perkin-Elmer) was added, and a TopCount HTS (Packard) was used to measure the residual radioactivity on the filter.

[2] = test system: rhesus monkey NPY Y4 receptor (SEQ ID NO: 3); assay: Receptor binding assay using rhesus monkey Y4 receptor-expressing COS-7 cell membrane fractions (SEQ ID NO: 3), inhibition of [125I]human PP binding; conditions: expression vector SEQ ID NO: 3; COS-7 membrane fraction; 59 pM [125I]human PP; read-out: IC50 against specific [125I]human PP binding
Method: as §1

[3] = test system: rhesus monkey NPY Y4 receptor (SEQ ID NO: 1); assay: [125I]human PP binding assay using COS-7 cells expressing rhesus monkey Y4 receptor (SEQ ID NO: 1); conditions: COS-7 cells transfected with SEQ ID NO: 1; 50 pM [125I]human PP; non-specific binding with 1 μM human PP
Method: (§2) COS-7 cells (American Type Culture Collection) were seeded in a 24-well culturing plate at a density of 5×10^4 cells/well, and after 24 hours, they were transfected with a pEF1/V5-HisB plasmid vector containing the nucleotide sequence of SEQ ID NO: 1 or 3 obtained in Example 1 or the same vector without the insert (mock), using Efectene (Qiagen). After culturing for 48 hours, incubation was performed at 37° C. for 30 minutes in 240 μl/well of reaction buffer (Hanks' balanced salt solution containing 20 mM HEPES and 0.2% bovine serum albumin; pH 7.4) to which 50 pM [^125I]human PP (Perkin-Elmer) had been added. After rinsing with ice-cooled reaction buffer, the cells were lysed and recovered with 2M NaOH and the radioactivity was measured with a γ-counter (Packard, Cobra).
(§3) Non-specific binding was also measured by adding 1 μM human PP to the reaction solution.

[4] = test system: rhesus monkey NPY Y4 receptor (SEQ ID NO: 3); assay: [125I]human PP binding assay using COS-7 cells expressing rhesus monkey Y4 receptor (SEQ ID NO: 3); conditions: COS-7 cells transfected with SEQ ID NO: 3; 50 pM [125I]human PP; non-specific binding with 1 μM human PP
Method: as §2, §3

Chain of rhesus monkey NPY Y4 receptor (SEQ ID NO: 3) (as listed by the source): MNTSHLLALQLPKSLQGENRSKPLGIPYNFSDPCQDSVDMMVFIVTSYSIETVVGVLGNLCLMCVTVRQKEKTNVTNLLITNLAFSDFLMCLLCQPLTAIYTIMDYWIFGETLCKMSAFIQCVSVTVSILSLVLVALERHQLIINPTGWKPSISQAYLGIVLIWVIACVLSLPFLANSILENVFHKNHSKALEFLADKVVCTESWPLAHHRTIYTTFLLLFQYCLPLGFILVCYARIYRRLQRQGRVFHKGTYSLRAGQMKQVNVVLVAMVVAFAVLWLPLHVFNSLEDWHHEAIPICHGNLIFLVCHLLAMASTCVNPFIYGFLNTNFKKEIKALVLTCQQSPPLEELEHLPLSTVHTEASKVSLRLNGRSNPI
Chain of rhesus monkey NPY Y4 receptor (SEQ ID NO: 1) (as listed by the source): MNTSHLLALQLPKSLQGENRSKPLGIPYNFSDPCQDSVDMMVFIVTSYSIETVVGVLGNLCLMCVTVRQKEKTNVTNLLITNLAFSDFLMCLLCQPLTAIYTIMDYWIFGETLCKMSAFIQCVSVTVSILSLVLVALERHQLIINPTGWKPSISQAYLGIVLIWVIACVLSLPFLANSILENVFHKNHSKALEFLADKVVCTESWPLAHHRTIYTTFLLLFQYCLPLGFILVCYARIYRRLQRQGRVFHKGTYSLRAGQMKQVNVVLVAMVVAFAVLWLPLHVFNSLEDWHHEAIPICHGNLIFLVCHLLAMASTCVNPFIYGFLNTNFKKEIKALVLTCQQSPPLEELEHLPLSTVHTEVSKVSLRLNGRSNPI

Row | Substance | IC50 [1] | IC50 [2] | Specific binding [3] | Specific binding [4]
1 | Neuropeptide-Y [Human NPY] | 100 nM | 97 nM | – | –
2 | [125I]human PP: 125I-labelled human PP radioligand (Perkin-Elmer) | – | – | 1238 cpm | 1394 cpm
